# In ChEMBL document CHEMBL3769388, “Optimization of a Dicarboxylic Series for in Vivo Inhibition of Citrate Transport by the Solute Carrier 13 (SLC13) Family” (J Med Chem, 2016):
# Activity calls are given as the source filed them. No cut-off for these calls is given here.
# What was measured:
# [1] = target: T1, Na(+)/citrate cotransporter (Homo sapiens, UniProt Q86YT5); experiment: Inhibition of NaCT in human hepatocytes assessed as [14C]-citrate uptake after 30 mins by scintillation counting method; type: cell-based, Hepatocyte
# T1 sequence (Q86YT5 whole entry): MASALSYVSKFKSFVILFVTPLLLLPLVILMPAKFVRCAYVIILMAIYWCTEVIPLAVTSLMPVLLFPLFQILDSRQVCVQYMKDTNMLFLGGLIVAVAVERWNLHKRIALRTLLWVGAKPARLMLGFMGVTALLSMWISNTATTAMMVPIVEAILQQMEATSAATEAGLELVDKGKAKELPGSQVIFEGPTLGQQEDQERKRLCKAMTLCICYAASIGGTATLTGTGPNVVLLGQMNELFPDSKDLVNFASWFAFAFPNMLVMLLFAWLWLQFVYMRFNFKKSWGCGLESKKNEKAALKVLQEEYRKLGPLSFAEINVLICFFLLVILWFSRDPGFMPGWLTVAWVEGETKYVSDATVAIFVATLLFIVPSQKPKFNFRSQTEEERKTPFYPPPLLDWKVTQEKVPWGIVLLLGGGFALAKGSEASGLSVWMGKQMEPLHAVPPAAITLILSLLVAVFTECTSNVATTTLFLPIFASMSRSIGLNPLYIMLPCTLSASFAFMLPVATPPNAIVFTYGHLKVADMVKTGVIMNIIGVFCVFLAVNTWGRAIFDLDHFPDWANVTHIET
# [2] = target: 5-hydroxytryptamine receptor 2B (Homo sapiens) (UniProt P41595); experiment: Inhibition of 5HT2B receptor (unknown origin)
# Sequence of 5-hydroxytryptamine receptor 2B (Homo sapiens) (P41595 whole entry): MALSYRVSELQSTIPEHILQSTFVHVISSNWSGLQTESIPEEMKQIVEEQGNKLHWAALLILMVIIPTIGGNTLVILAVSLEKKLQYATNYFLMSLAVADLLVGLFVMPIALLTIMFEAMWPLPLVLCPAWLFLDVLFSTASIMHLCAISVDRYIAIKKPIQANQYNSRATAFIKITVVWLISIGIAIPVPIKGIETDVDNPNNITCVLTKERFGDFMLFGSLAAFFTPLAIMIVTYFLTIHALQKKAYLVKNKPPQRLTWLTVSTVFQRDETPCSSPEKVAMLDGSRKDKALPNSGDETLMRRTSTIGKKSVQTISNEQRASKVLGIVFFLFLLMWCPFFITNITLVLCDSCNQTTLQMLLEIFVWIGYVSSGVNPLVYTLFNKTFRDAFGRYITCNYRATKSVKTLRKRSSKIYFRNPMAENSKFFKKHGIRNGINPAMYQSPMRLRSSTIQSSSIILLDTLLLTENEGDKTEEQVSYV
# [3] = target: Muscarinic acetylcholine receptor M3 (Homo sapiens) (UniProt P20309); experiment: Inhibition of M3 (unknown origin)
# [4] = target: Angiotensin-converting enzyme (Homo sapiens) (UniProt P12821); experiment: Inhibition of ACE1 (unknown origin)
# Rattus norvegicus [5] = experiment: Decrease in [14C]citrate uptake in iv dosed Wistar Han rat kidney measured after 185 to 200 mins by scintillation counting method; type: functional, organism-based
# [6] = target: Adenosine receptor A1 (Homo sapiens) (UniProt P30542); experiment: Inhibition of ADORA1 (unknown origin)
# Sequence of Adenosine receptor A1 (Homo sapiens) (P30542 whole entry): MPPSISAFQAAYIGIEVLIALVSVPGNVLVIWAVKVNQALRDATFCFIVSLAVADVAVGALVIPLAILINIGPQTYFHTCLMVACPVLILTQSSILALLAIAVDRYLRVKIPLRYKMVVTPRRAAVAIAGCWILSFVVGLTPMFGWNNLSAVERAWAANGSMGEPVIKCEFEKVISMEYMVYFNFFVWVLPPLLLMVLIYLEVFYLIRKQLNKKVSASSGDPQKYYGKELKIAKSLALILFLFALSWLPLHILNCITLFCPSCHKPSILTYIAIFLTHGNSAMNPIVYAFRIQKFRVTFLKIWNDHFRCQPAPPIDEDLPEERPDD
# [7] = target: Cannabinoid receptor 1 (Homo sapiens) (UniProt P21554); experiment: Inhibition of CB1 (unknown origin)
# Sequence of Cannabinoid receptor 1 (Homo sapiens) (P21554 whole entry): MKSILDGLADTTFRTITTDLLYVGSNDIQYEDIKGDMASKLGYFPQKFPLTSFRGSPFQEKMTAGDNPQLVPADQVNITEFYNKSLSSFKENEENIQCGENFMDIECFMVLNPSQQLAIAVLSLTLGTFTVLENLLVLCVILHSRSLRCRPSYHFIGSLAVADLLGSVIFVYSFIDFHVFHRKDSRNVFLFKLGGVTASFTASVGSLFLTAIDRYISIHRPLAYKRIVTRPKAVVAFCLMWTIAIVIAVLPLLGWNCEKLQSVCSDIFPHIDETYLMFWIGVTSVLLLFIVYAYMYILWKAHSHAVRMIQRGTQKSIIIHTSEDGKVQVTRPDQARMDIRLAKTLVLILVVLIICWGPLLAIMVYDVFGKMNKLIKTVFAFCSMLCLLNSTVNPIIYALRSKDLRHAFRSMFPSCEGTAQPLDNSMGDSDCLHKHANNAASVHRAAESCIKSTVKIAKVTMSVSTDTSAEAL
# [8] = target: 5-hydroxytryptamine receptor 2A (Homo sapiens) (UniProt P28223); experiment: Inhibition of 5HT2A receptor (unknown origin)
# [9] = target: Sodium-dependent noradrenaline transporter (Homo sapiens) (UniProt P23975); experiment: Inhibition of NAT (unknown origin)
# Mus musculus [10] = experiment: Effect on glucose infusion rate in DIO C57/B6 mouse during hyperinsulinemic-euglycemic clamp at 44 mg/kg/hr for 90 mins; type: functional, organism-based
# Rattus norvegicus [11] = species on record: Rattus norvegicus; experiment: Increase in […][13C]-citrate levels in rat liver measured over 140 to 150 mins by UPLC-MS/MS analysis; type: functional, organism-based
# [12] = target: Tyrosine-protein kinase Lck (Homo sapiens) (UniProt P06239); experiment: Inhibition of LCK (unknown origin)
# Sequence of Tyrosine-protein kinase Lck (Homo sapiens) (P06239 2-509 limits assumed): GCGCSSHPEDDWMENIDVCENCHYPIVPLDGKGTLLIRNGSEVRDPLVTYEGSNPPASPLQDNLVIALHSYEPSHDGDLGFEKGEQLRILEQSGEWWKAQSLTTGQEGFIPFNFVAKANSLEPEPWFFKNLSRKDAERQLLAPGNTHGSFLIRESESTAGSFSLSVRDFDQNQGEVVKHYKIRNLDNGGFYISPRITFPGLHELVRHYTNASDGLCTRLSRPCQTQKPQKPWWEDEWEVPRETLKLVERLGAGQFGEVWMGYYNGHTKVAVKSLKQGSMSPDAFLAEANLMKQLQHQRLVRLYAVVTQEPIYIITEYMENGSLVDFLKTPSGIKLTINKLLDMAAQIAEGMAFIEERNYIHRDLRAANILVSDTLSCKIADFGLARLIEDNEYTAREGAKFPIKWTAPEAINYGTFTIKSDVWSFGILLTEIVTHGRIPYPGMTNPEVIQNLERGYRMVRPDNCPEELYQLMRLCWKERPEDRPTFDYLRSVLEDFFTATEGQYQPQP
# Cytochrome P450 1A2 = Cytochrome P450 1A2 (Homo sapiens, UniProt P05177); experiment: Inhibition of CYP1A2 (unknown origin); type: ADME
# [13] = target: Sodium-dependent dopamine transporter (Homo sapiens) (UniProt Q01959); experiment: Inhibition of DAT (unknown origin)
# [14] = target: 3',5'-cyclic-AMP phosphodiesterase 4D (Homo sapiens) (UniProt Q08499); experiment: Inhibition of PDE4D2 (unknown origin)
# Sequence of 3',5'-cyclic-AMP phosphodiesterase 4D (Homo sapiens) (Q08499 whole entry): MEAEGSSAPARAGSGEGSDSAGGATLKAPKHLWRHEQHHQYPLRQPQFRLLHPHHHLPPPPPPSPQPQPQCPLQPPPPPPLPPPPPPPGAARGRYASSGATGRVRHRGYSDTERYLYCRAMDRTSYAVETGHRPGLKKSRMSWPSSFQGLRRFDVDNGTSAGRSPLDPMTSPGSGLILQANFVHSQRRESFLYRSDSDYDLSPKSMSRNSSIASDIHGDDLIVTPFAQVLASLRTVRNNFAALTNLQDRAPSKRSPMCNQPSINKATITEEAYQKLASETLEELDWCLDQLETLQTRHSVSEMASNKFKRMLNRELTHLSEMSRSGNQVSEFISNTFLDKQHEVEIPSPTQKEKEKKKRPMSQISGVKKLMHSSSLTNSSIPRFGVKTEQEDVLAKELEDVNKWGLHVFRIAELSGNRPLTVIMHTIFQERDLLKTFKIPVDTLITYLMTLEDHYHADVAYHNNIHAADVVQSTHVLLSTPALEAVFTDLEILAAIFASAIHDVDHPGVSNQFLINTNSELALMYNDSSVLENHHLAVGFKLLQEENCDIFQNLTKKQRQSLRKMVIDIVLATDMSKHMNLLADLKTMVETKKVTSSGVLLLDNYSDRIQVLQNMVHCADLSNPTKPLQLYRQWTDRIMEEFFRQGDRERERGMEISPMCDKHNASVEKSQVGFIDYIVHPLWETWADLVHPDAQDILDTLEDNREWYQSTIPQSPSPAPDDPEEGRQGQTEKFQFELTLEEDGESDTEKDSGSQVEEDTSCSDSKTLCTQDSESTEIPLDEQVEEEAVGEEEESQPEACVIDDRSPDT
# [15] = target: Vasopressin V1a receptor (Homo sapiens) (UniProt P37288); experiment: Inhibition of AVPR1A (unknown origin)
# Sequence of Vasopressin V1a receptor (Homo sapiens) (P37288 whole entry, looked up): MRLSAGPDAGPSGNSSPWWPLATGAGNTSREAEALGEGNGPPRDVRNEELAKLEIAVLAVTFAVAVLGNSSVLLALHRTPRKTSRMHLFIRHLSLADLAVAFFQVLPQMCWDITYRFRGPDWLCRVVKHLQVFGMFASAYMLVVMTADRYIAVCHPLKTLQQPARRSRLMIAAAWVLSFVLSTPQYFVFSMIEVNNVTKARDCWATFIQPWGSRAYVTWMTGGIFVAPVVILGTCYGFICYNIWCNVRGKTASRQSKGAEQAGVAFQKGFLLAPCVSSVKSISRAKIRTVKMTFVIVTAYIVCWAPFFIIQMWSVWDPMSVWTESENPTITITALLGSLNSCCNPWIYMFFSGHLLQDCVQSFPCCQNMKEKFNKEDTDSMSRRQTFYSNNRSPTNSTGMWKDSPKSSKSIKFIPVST
# [16] = Thermodynamic solubility of compound in aqueous solution at pH 6.5; type: physicochemical; conditions: read-out: Therm_solubility
# [17] = target: Acetylcholinesterase (Homo sapiens) (UniProt P22303); experiment: Inhibition of ACHE (unknown origin)
# [18] = target: cGMP-specific 3',5'-cyclic phosphodiesterase (Homo sapiens) (UniProt O76074); experiment: Inhibition of PDE5A1 (unknown origin)
# [19] = target: Sodium channel protein type 5 subunit alpha (Homo sapiens, UniProt Q14524); experiment: Inhibition of NaV1.5 (unknown origin)
# Rattus norvegicus [20] = species on record: Rattus norvegicus; experiment: Increase in [12C]-citrate levels in rat plasma measured over 140 to 150 mins by UPLC-MS/MS analysis; type: functional, organism-based
# [21] = Half life in Wistar Han rat at 1 mg/kg, iv by LC-MS/MS analysis; type: ADME, organism-based; conditions: in vivo
# [22] = target: Beta-2 adrenergic receptor (Homo sapiens) (UniProt P07550); experiment: Inhibition of ADRB2 (unknown origin)
# [23] = target: Muscarinic acetylcholine receptor M2 (Homo sapiens) (UniProt P08172); experiment: Inhibition of M2 (unknown origin)
# [24] = target: Endothelin-1 receptor (Homo sapiens) (UniProt P25101); experiment: Inhibition of ETA (unknown origin)
# Mus musculus [25] = experiment: Increase in urinary calcium level in C57BL/6J mouse at 250 mg/kg, po measured after 7 hrs by UPLC-MS/MS analysis; type: functional, organism-based; conditions: Urine
# [26] = target: Proto-oncogene tyrosine-protein kinase Src (Homo sapiens) (UniProt P12931); experiment: Inhibition of SRC (unknown origin)
# Mus musculus [27] = experiment: Decrease in fasting glucose levels in DIO C57/B6 mouse model in basal portion at 44 mg/kg/hr for 90 mins; type: functional, organism-based
# [28] = Fraction unbound in Wistar Han rat by equilibrium dialysis method; type: ADME
# [29] = target: Amine oxidase [flavin-containing] A (Homo sapiens, UniProt P21397); experiment: Inhibition of MAOA (unknown origin)
# Sequence of Amine oxidase [flavin-containing] A (P21397 whole entry): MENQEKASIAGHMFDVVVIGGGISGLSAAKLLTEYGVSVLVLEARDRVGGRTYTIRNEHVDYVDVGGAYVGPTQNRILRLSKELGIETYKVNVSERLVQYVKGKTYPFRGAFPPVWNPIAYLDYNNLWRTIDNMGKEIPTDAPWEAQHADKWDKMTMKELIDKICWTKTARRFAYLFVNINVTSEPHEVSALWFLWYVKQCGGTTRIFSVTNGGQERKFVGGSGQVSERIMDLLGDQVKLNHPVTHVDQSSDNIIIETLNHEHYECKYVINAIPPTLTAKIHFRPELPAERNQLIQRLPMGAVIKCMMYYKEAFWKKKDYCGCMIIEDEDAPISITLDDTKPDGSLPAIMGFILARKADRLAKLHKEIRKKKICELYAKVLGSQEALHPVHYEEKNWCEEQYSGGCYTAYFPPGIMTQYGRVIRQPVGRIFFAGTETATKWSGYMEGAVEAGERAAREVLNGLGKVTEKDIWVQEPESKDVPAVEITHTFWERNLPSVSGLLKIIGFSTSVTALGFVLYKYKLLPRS
# Cytochrome P450 3A4 = Cytochrome P450 3A4 (Homo sapiens, UniProt P08684); experiment: Inhibition of CYP3A4 (unknown origin); type: ADME
# [30] = target: Beta-1 adrenergic receptor (Homo sapiens) (UniProt P08588); experiment: Inhibition of ADRB1 (unknown origin)
# [31] = target: Sodium-dependent phosphate transport protein 2A (Homo sapiens) (UniProt Q06495); experiment: Inhibition of NaPiA2 (unknown origin)
# Sequence of Sodium-dependent phosphate transport protein 2A (Homo sapiens) (Q06495 whole entry): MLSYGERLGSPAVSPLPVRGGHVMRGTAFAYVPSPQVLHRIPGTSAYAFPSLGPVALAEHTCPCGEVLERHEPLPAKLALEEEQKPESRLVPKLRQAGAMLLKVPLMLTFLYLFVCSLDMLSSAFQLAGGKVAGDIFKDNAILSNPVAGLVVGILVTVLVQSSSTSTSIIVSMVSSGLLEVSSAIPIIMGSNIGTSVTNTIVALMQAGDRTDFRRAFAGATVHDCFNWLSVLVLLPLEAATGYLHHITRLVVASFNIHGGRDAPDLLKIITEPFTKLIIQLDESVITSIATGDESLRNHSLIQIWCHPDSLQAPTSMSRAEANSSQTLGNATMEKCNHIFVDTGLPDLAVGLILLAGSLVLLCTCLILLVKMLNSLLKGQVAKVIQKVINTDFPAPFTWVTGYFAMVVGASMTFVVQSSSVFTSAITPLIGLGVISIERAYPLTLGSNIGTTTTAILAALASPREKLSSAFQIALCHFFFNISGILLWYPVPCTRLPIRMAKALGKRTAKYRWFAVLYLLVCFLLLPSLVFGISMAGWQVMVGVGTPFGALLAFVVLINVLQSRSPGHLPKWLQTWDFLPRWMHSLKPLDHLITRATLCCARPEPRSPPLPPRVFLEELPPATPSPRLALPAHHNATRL
# Rattus norvegicus [32] = species on record: Rattus norvegicus; experiment: Increase in […][13C]-citrate levels in rat plasma measured over 140 to 150 mins by UPLC-MS/MS analysis; type: functional, organism-based
# [33] = target: Sodium-dependent phosphate transport protein 3 (Homo sapiens) (UniProt O00624); experiment: Inhibition of NaPiA3 (unknown origin)
# [34] = Volume of distribution at steady state in Wistar Han rat at 1 mg/kg, iv by LC-MS/MS analysis; type: ADME, organism-based; conditions: in vivo, read-out: Vdss
# [35] = target: Mitogen-activated protein kinase 14 (Homo sapiens) (UniProt Q16539); experiment: Inhibition of MAPK14/P38-alpha (unknown origin)
# [36] = target: D(2) dopamine receptor (Homo sapiens) (UniProt P14416); experiment: Inhibition of D2 (unknown origin)
# [37] = target: 5-hydroxytryptamine receptor 1A (Homo sapiens) (UniProt P08908); experiment: Inhibition of 5HT1A (unknown origin)
# Cytochrome P450 2D6 = Cytochrome P450 2D6 (Homo sapiens, UniProt P10635); experiment: Inhibition of CYP2D6 (unknown origin); type: ADME
# [38] = target: Histamine H3 receptor (Homo sapiens) (UniProt Q9Y5N1); experiment: Inhibition of H3 (unknown origin)
# [39] = target: Sodium-dependent serotonin transporter (Homo sapiens) (UniProt P31645); experiment: Inhibition of 5HTT (unknown origin)
# [40] = target: T1, Na(+)/citrate cotransporter; experiment: Inhibition of NaCT (unknown origin) expressed in HEK293 cells assessed as inhibition of [14C]citrate uptake by microbeta plate reader analysis; type: cell-based; conditions: read-out: IC50
# [41] = target: Voltage-gated L-type calcium channel (Homo sapiens, UniProt Q13936+Q13698+Q01668+O60840); experiment: Inhibition of L type calcium channel (unknown origin); type: protein assay
# Homo sapiens = species on record: Homo sapiens; experiment: Inhibition of PDE3A1 (unknown origin)
# [42] = Clearance in mouse hepatocytes assessed per 10^6 cells; type: ADME, cell-based, Hepatocyte; conditions: read-out: CLH
# [43] = target: Gamma-aminobutyric acid receptor subunit alpha-1 (Homo sapiens) (UniProt P14867); experiment: Inhibition of GABRA1 (unknown origin)
# Cytochrome P450 2C8 = Cytochrome P450 2C8 (Homo sapiens, UniProt P10632); experiment: Inhibition of CYP2C8 (unknown origin); type: ADME
# [44] = target: Mu-type opioid receptor (Homo sapiens) (UniProt P35372); experiment: Inhibition of MOP (unknown origin)
# [45] = Renal clearance in Wistar Han rat at 1 mg/kg, iv by LC-MS/MS analysis; type: ADME, organism-based, Kidney; conditions: in vivo
compound,measurement,setting,value
COc1ncc(C)cc1CC[C@@](O)(CC(=O)O)C(=O)O,IC50,[1],740 nM
same,inhibition,[2],inactive
same,inhibition,[3],inactive
same,inhibition,[4],inactive
same,IC50,Rattus norvegicus [5],1000 nM
same,inhibition,[6],inactive
same,inhibition,[7],inactive
same,inhibition,[8],inactive
same,inhibition,[9],inactive
same,Activity,Mus musculus [10],inactive
same,Activity,Rattus norvegicus [11],Active
same,inhibition,[12],inactive
same,inhibition (INH),Cytochrome P450 1A2,Not Active
same,inhibition,[13],inactive
same,inhibition,[14],inactive
same,inhibition,[15],inactive
same,solubility thermodynamic,[16],24 µM
same,inhibition,[17],inactive
same,inhibition,[18],inactive
same,inhibition (INH),[19],Not Active
same,Activity,Rattus norvegicus [20],Active
same,half-life,[21],1.7 h
same,inhibition,[22],inactive
same,inhibition,[23],inactive
same,inhibition,[24],inactive
same,Activity,Mus musculus [25],Active
same,inhibition,[26],inactive
same,inhibition,Mus musculus [27],Active
same,fraction unbound,[28],0.135
same,inhibition (INH),[29],Not Active
same,inhibition (INH),Cytochrome P450 3A4,Not Active
same,inhibition,[30],inactive
same,inhibition,[31],inactive
same,Activity,Rattus norvegicus [32],Active
same,inhibition,[33],inactive
same,Vd,[34],0.54 L/kg
same,inhibition,[35],inactive
same,inhibition,[36],inactive
same,inhibition,[37],inactive
same,inhibition (INH),Cytochrome P450 2D6,Not Active
same,inhibition,[38],inactive
same,inhibition,[39],inactive
same,IC50,[40],510 nM
same,inhibition (INH),[41],Not Active
same,inhibition,Homo sapiens,inactive
same,hepatocyte CLint,[42],< 6 µL/min/1e6 cells
same,inhibition,[43],inactive
same,inhibition (INH),Cytochrome P450 2C8,Not Active
same,inhibition,[44],inactive
same,CL renal,[45],4.4 mL/min/kg
